Structures can show the parent of a compound that is named as a salt. Where two headings read alike, the source gives them in different places.
What was measured:
Format in all cases: cell-based, human
MCF-7 cells = assay: CCK-8 anti-proliferative assay, MCF-7; details: Table 16, comparative compounds 8-1 to 8-23, co-incubated 48 h, read-out: Anti-proliferative activity (IC50 ± standard deviation) MCF-7
Protocol: (§1) The obtained quinazolinyl-aryl urea derivatives were screened for compounds with optimal activity using the following method.
(§2) Experimental Procedure for Anti-Proliferative Activity Evaluation: The CCK-8 assay was employed. Cells in logarithmic growth phase were harvested, adjusted to appropriate density, and uniformly seeded into 96-well plates using a multichannel pipette (180 μL cell suspension containing complete medium per well, 5,000 cells/well). Blank control wells (containing basal medium, CCK-8 solution, and DMSO only) were set. Cells were incubated at 37° C. under 5% CO2. After 70% confluency was reached, test compounds (target compounds/positive controls) were added at final concentrations of 1, 2, 4, 6, 8, 12, 16, 24, and 30 μM (3 repeated wells per concentration). Compounds were pre-dissolved in DMSO, sterilized, and diluted with medium before adding 20 μL/well. After co-incubation for designated durations, 10 μL CCK-8 solution was added per well followed by 1-4 h incubation (different cells have different incubation times). […] Inhibition rates were calculated as: (ODcontrol−ODtreatment)/ODcontrol×100%. Median inhibitory concentrations (IC50 values) were derived using Origin v8.0 software.

Hep G2 cells = assay: CCK-8 anti-proliferative assay, Hep G2
Description: (§3) The obtained quinazolinyl-aryl urea derivatives were screened for compounds with optimal activity using the following method. All cell lines employed in this experiment were of human origin, including: bladder cancer cells: J82, UM-UC-3, T24, 5637, pancreatic cancer cells: BxPC-3, PANC-1, osteosarcoma cells: 143B, MG-63, cervical cancer cells: HeLa, breast cancer cells: MCF-7, NSCLC cells: A549, hepatoblastoma cells: Hep G2, and ovarian cancer cells: SK-OV-3, as well as normal cell lines: immortalized ureteral epithelial cells (SV-HUC-1), embryonic lung fibroblasts (WI-38).
(§4) Experimental Procedure for Anti-Proliferative Activity Evaluation: The CCK-8 assay was employed. Cells in logarithmic growth phase were harvested, adjusted to appropriate density, and uniformly seeded into 96-well plates using a multichannel pipette (180 μL cell suspension containing complete medium per well, 5,000 cells/well). Blank control wells (containing basal medium, CCK-8 solution, and DMSO only) were set. Cells were incubated at 37° C. under 5% CO2. After 70% confluency was reached, test compounds (target compounds/positive controls) were added at final concentrations of 1, 2, 4, 6, 8, 12, 16, 24, and 30 μM (3 repeated wells per concentration). Compounds were pre-dissolved in DMSO, sterilized, and diluted with medium before adding 20 μL/well. After co-incubation for designated durations, 10 μL CCK-8 solution was added per well followed by 1-4 h incubation (different cells have different incubation times). The reaction was terminated, and OD (optical density) values at 450 nm were measured using a microplate reader. Inhibition rates were calculated as: (ODcontrol−ODtreatment)/ODcontrol×100%. Median inhibitory concentrations (IC50 values) were derived using Origin v8.0 software.

A549 cells = assay: CCK-8 anti-proliferative assay, A549; details: Table 16, comparative compounds 8-1 to 8-23, co-incubated 48 h, read-out: Anti-proliferative activity (IC50 ± standard deviation) A549
Protocol: as §1, §2

T24 cells = assay: CCK-8 anti-proliferative assay, T24; details: Table 16, comparative compounds 8-1 to 8-23, co-incubated 48 h, read-out: Anti-proliferative activity (IC50 ± standard deviation) T24
Description: as §3, §4

5637 cells = assay: CCK-8 anti-proliferative assay, 5637; details: Table 16, comparative compounds 8-1 to 8-23, co-incubated 48 h, read-out: Anti-proliferative activity (IC50 ± standard deviation) 5637
Protocol: as §1, §2

BxPC-3 cells = assay: CCK-8 anti-proliferative assay, BxPC-3; details: Homo sapiens, BXPC-3; Table 7; co-incubated 48 h; read-out: Anti-proliferative activity (IC50 ± standard deviation) BxPC-3
Description: as §3, §4

PANC-1 cells = assay: CCK-8 anti-proliferative assay, PANC-1; details: Homo sapiens, PANC-1; Table 7; co-incubated 48 h; read-out: Anti-proliferative activity (IC50 ± standard deviation) PANC-1
Description: as §3, §4

[1] = Homo sapiens, HepG2, Table 16, comparative compounds 8-1 to 8-23, co-incubated 48 h, read-out: Anti-proliferative activity (IC50 ± standard deviation) Hep G2
[2] = Table 16, comparative compounds 8-1 to 8-23, co-incubated 48 h, read-out: Anti-proliferative activity (IC50 ± standard deviation) Hep G2

Compound	IC50 (MCF-7 cells; Homo sapiens, MCF7) [µM]	IC50 (A549 cells; Homo sapiens, A549) [µM]	IC50 (T24 cells; Homo sapiens, T-24) [µM]	IC50 (MCF-7 cells) [µM]	IC50 (A549 cells) [µM]	IC50 (T24 cells) [µM]	IC50 (BxPC-3 cells) [µM]	IC50 (PANC-1 cells) [µM]	IC50 (Hep G2 cells; [1]) [µM]	IC50 (5637 cells; Homo sapiens) [µM]	IC50 (Hep G2 cells; Homo sapiens, HepG2, read-out: IC50 on Hep G2) [µM]	IC50 (Hep G2 cells; [2]) [µM]	IC50 (5637 cells) [µM]
COc1cc2ncnc(NCc3cccc(NC(=O)Nc4ccccc4)c3)c2cc1OCCCC(=O)N1CCC(N2CCOCC2)CC1 [Compound 8-1, reference compound]	18.3 ± 0.53	> 30	18.8 ± 0.49						28.2 ± 0.49	26.2 ± 0.98			
COc1cc2ncnc(NCc3cccc(NC(=O)Nc4ccc(C(C)C)cc4)c3)c2cc1OCCCC(=O)N1CCC(N2CCOCC2)CC1 [Compound 8-8, reference compound]	10 ± 0.19	18.3 ± 0.29	7.73 ± 0.23						17.7 ± 0.46	7.6 ± 0.18			
COc1cc2ncnc(NCc3cccc(NC(=O)Nc4ccc(C(C)(C)C)cc4)c3)c2cc1OCCCC(=O)N1CCC(N2CCOCC2)CC1 [Compound 8-9, reference compound]	6.55 ± 0.13	12.5 ± 0.37	4.54 ± 0.04						12.2 ± 0.17	6.25 ± 0.06	12.2 ± 0.17		
COc1cc2ncnc(NCc3cccc(NC(=O)Nc4ccc(F)cc4)c3)c2cc1OCCCCCCN1CCN(CCN2CCOCC2)CC1 [Compound 8-11, reference compound]				18.3 ± 0.43	> 30	23.3 ± 1.82						> 30	17.9 ± 0.33
COc1cc2ncnc(NCc3cccc(NC(=O)Nc4ccc(F)cc4)c3)c2cc1OCCCC(=O)N1CCC(N2CCOCC2)CC1 [Compound 8-13, reference compound]	21.5 ± 0.47	> 30	19.5 ± 0.27						> 30	13.9 ± 0.43			
COc1cc2ncnc(NCc3cccc(NC(=O)Nc4c(Cl)cc(Cl)cc4Cl)c3)c2cc1OCCCC(=O)N1CCC(N2CCOCC2)CC1 [Compound 8-16, reference compound]	15.9 ± 0.62	> 50	> 30						> 30	> 30			
COc1cc2ncnc(NCc3cccc(NC(=O)Nc4ccc(C(F)(F)F)cc4)c3)c2cc1OCCCC(=O)N1CCC(N2CCOCC2)CC1 [Compound 8-18, reference compound]	13.2 ± 0.39	18.8 ± 0.59	19.6 ± 0.45						> 30	13.1 ± 0.24			
COc1cc2ncnc(NCc3cccc(NC(=O)Nc4ccc(F)c(C(F)(F)F)c4)c3)c2cc1OCCCC(=O)N1CCC(N2CCOCC2)CC1 [Compound 8-19, reference compound]	22.4 ± 0.82	16.1 ± 0.71	26.2 ± 0.94						> 30	17.9 ± 0.45			
COc1cc2ncnc(NCc3cccc(NC(=O)Nc4ccccc4Cl)c3)c2cc1OCCCCCCN1CCC(CN2CCN(c3ccccn3)CC2)CC1 [Compound 8-20, reference compound]				20.5 ± 0.38	22.4 ± 1.01	18.4 ± 0.81						> 30	14.1 ± 0.29
COc1ccc(NC(=O)Nc2cccc(CNc3ncnc4cc(OC)c(OCCCCCCN5CCC(CN6CCN(c7ccccn7)CC6)CC5)cc34)c2)cc1 [Compound 8-21, reference compound]				12.2 ± 0.32	11.9 ± 0.23	5.42 ± 0.05						14.1 ± 0.2	6.61 ± 0.07
COc1cc2ncnc(NCc3cccc(NC(=O)NCc4ccccc4)c3)c2cc1OCCCC(=O)N1CCC(N2CCOCC2)CC1 [Compound 8-23, reference compound]	23.1 ± 0.92	> 30	> 30						> 30	26.8 ± 0.63			
C#Cc1cccc(Nc2ncnc3cc(OCCOC)c(OCCOC)cc23)c1 [Erlo, erlotinib hydrochloride, reference compound]							18.3 ± 1.46	27.4 ± 1.77					

Further lines, with some results ahead:

IC50 (MCF-7 cells; Homo sapiens, MCF7) [µM]	IC50 (A549 cells; Homo sapiens, A549) [µM]	IC50 (T24 cells; Homo sapiens, T-24) [µM]	IC50 (MCF-7 cells) [µM]	IC50 (A549 cells) [µM]	IC50 (T24 cells) [µM]	IC50 (BxPC-3 cells) [µM]	IC50 (PANC-1 cells) [µM]	Compound	IC50 (Hep G2 cells; [1]) [µM]	IC50 (5637 cells; Homo sapiens) [µM]	IC50 (Hep G2 cells; Homo sapiens, HepG2, read-out: IC50 on Hep G2) [µM]	IC50 (Hep G2 cells; [2]) [µM]	IC50 (5637 cells) [µM]
16.5 ± 0.64	> 30	> 30						COc1cc2ncnc(NCc3cccc(NC(=O)Nc4ccccc4C)c3)c2cc1OCCCC(=O)N1CCC(N2CCOCC2)CC1 [Compound 8-2, reference compound]	> 30	25.9 ± 1.32			
23.2 ± 0.35	24.1 ± 0.95	20.6 ± 0.68						COc1cc2ncnc(NCc3cccc(NC(=O)Nc4ccc(C)cc4)c3)c2cc1OCCCC(=O)N1CCC(N2CCOCC2)CC1 [Compound 8-3, reference compound]	> 30	> 30			
18.5 ± 0.63	22.2 ± 1.15	27.1 ± 0.33						COc1cc2ncnc(NCc3cccc(NC(=O)Nc4ccc(C)cc4C)c3)c2cc1OCCCC(=O)N1CCC(N2CCOCC2)CC1 [Compound 8-4, reference compound]	> 30	14 ± 0.66			
21.3 ± 0.42	21 ± 0.87	23.2 ± 0.54						COc1cc2ncnc(NCc3cccc(NC(=O)Nc4cc(C)cc(C)c4)c3)c2cc1OCCCC(=O)N1CCC(N2CCOCC2)CC1 [Compound 8-5, reference compound]	> 30	21.7 ± 0.51			
> 30	> 30	19.4 ± 0.44						CCc1ccccc1NC(=O)Nc1cccc(CNc2ncnc3cc(OC)c(OCCCC(=O)N4CCC(N5CCOCC5)CC4)cc23)c1 [Compound 8-6, reference compound]	> 30	27.5 ± 0.94			
> 30	> 30	18.6 ± 0.53						CCc1cccc(CC)c1NC(=O)Nc1cccc(CNc2ncnc3cc(OC)c(OCCCC(=O)N4CCC(N5CCOCC5)CC4)cc23)c1 [Compound 8-7, reference compound]	24.2 ± 0.53	13.9 ± 0.68			
19.3 ± 0.56	> 30	18.7 ± 0.38						COc1ccccc1NC(=O)Nc1cccc(CNc2ncnc3cc(OC)c(OCCCC(=O)N4CCC(N5CCOCC5)CC4)cc23)c1 [Compound 8-10, reference compound]	28.8 ± 0.58	16.9 ± 0.64			
18.6 ± 0.35	20.2 ± 0.92	23.1 ± 0.73						COc1cc2ncnc(NCc3cccc(NC(=O)Nc4ccccc4Cl)c3)c2cc1OCCCC(=O)N1CCC(N2CCOCC2)CC1 [Compound 8-14, reference compound]	> 30	28.9 ± 0.53			
16.8 ± 0.32	13.8 ± 0.35	19.1 ± 0.53						COc1cc2ncnc(NCc3cccc(NC(=O)Nc4ccc(Cl)cc4)c3)c2cc1OCCCC(=O)N1CCC(N2CCOCC2)CC1 [Compound 8-15, reference compound]	> 30	14 ± 0.72			

— patent publication US20260285816A1, “Piperazinyl-Modified Quinazolinyl-Aryl Urea Derivative, And Preparation Method And Use Thereof” (Guangxi Normal University, priority 2025, published 2026)
